# Literature values in patent US9206237B2, “Cystine knot peptides that bind alpha-V-beta-6 integrin” (priority 2011, dated 2015).
# Where two headings read alike, the source gives them in different places.
# Experiments:
# [1] = target: T1, alpha-v-beta-6 (Homo sapiens, UniProt P06756+P18564); details: inhibition of RGD-dependent ligand binding; read-out: IC50, isolated receptor assays
# Target sequence in this assay (P06756 31-992 limits assumed): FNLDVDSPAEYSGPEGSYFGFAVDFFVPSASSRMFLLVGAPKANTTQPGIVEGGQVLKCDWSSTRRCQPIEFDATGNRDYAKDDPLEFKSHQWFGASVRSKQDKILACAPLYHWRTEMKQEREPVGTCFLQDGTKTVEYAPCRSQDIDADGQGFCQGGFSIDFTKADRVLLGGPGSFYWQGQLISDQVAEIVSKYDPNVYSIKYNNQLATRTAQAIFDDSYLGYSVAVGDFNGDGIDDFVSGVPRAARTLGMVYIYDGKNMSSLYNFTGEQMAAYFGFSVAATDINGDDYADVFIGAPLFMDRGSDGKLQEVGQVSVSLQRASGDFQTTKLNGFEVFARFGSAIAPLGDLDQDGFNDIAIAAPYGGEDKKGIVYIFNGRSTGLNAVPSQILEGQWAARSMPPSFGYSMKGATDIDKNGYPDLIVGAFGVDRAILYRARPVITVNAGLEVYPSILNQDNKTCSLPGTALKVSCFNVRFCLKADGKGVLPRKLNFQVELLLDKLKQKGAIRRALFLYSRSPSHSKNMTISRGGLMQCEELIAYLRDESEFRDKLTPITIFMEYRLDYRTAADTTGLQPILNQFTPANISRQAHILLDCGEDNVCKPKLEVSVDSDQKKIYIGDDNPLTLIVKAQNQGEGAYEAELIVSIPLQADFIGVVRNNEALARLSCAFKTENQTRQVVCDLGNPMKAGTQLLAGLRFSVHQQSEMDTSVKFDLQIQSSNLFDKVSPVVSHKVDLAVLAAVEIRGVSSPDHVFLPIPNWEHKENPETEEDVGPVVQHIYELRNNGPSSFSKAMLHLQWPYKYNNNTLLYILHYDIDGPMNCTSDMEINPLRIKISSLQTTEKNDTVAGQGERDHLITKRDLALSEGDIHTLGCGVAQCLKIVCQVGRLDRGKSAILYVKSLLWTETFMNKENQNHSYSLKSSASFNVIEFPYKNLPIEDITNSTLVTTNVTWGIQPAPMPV
# Target sequence in this assay (P18564 22-709 limits assumed): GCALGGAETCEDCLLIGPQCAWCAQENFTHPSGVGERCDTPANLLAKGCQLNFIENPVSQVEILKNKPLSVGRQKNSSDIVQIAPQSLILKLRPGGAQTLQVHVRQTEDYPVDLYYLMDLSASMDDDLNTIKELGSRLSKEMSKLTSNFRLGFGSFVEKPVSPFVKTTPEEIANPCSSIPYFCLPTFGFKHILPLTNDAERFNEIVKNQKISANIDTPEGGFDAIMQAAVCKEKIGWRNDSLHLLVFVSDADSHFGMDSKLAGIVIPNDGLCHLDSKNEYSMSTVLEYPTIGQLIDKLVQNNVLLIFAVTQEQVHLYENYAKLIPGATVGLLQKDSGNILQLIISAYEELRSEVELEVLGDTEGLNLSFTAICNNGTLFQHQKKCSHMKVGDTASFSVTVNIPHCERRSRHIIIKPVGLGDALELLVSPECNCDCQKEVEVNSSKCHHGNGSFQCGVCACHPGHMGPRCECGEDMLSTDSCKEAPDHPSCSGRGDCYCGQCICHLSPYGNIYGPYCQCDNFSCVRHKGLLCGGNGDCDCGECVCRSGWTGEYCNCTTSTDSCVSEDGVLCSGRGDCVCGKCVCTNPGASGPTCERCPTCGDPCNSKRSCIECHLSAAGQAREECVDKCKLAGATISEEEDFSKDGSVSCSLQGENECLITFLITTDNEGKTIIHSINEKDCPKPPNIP
# [2] = target: T1, alpha-v-beta-6; details: read-out: IC50, cell adhesion assays
# Target sequence in this assay (P06756 31-1048): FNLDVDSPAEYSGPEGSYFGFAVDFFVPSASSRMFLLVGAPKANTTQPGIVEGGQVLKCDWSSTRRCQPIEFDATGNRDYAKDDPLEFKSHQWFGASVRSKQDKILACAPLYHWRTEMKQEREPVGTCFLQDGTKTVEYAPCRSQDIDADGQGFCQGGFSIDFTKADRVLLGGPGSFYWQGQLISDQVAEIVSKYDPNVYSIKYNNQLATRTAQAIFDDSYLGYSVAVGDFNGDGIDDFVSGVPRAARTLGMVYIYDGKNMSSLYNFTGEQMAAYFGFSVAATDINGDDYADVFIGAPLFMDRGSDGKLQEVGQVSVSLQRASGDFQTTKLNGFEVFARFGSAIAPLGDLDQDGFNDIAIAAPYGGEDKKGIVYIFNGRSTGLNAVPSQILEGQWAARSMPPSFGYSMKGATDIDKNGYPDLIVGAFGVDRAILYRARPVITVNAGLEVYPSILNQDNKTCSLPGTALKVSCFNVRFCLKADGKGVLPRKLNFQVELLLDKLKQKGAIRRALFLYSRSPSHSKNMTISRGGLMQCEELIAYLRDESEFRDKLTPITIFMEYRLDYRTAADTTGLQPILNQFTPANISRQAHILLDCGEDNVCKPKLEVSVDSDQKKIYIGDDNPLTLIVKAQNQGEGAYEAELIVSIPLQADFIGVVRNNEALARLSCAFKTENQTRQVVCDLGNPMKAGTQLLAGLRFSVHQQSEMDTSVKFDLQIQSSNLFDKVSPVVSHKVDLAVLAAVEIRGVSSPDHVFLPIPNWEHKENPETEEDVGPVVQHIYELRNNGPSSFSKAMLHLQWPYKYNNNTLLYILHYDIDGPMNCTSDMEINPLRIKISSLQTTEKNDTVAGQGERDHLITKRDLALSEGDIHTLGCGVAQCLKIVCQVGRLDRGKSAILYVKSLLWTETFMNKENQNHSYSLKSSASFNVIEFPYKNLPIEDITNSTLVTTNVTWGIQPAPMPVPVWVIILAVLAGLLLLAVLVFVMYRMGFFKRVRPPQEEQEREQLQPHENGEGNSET
# Target sequence in this assay (P18564 22-788): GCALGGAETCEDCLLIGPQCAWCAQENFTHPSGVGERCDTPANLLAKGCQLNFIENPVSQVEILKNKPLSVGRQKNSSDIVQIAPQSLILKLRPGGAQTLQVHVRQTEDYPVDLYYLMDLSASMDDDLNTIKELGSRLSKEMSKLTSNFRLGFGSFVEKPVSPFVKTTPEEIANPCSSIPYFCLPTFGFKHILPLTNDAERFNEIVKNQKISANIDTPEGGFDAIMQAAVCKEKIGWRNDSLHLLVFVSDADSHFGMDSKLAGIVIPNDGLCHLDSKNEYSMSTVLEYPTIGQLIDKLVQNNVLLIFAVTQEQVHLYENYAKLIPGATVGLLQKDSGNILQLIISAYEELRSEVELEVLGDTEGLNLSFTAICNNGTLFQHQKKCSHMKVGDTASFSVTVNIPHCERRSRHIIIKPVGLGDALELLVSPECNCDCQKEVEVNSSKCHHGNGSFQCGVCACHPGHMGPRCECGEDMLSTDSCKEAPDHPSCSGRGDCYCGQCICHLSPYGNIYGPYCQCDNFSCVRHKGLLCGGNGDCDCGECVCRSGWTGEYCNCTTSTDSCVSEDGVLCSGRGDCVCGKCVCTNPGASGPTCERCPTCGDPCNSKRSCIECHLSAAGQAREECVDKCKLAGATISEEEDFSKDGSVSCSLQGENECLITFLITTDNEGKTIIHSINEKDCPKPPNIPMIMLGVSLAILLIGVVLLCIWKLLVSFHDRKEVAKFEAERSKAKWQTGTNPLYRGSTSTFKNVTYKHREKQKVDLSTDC
sequence,measurement,setting,value
RTDLDSLRTYTL,IC50,[1],0.02 µM
same,IC50,[2],50 µM
